Experimental data: patent US20170150719A1, “FUNGICIDAL PYRAZOLES AND THEIR MIXTURES” (E I DU PONT DE NEMOURS AND COMPANY, priority 2010, published 2017)
Read-outs that look alike come from different tables or passages of the source.

Experiments:
[1] = system: Puccinia recondita f sp. tritici; experiment: Test L (L1-L5): wheat leaf rust, Compound 81 alone and in mixtures, observed and Colby expected control; format: in vivo; conditions: for Test L4 Obsd, disease control rating / Test L5 Obsd, disease control rating: wheat leaf rust
[2] = system: Septoria tritici; experiment: Tests N1 and N2: growth inhibition of Septoria tritici on solid medium in 96-well plates, absorbance at 600 nm, observed and Colby expected; format: cell-based; conditions: Zymoseptoria tritici; for inhibition at 0.00032 µM: Compound 81 alone 0.00032 μM; for inhibition at 0.0016 µM: Compound 81 alone 0.0016 μM; for inhibition at 0.008 µM: Compound 81 alone 0.008 μM; for inhibition at 0.04 µM: Compound 81 alone 0.04 μM; for inhibition at 0.2 µM: Compound 81 alone 0.2 μM
Source text: Tests N1 and N2 involved evaluation of mixtures of Compound 81 with 2-[(3-bromo-8-methyl-6-quinolinyl)oxy]-N-(1,1-dimethyl-2-propyn-1-yl)-2-(methylthio)acetamide (Compound A1) and 2-[(3-bromo-6-quinolinyl)oxy]-N-(1,1-dimethylethyl)butanamide (Compound A2), respectively, for inhibiting the growth of Septoria tritici (the causal agent of wheat leaf blotch). The general protocol for preparing test compositions was as follows. Compound 81 (Tests N1 and N2), Compound A1 (Test N1) and Compound A2 (Test N2) were obtained as unformulated, technical-grade materials. Unformulated test compounds were first dissolved in DMSO at the appropriate concentration to provide the desired concentration (in μM) after mixing with the fungal growth medium in the wells of 96-well plates containing 200 μL fungal growth medium per well. The ranges of compound concentrations were chosen to span a range of inhibitory activity from 0 to near 100% to identify any synergistic action when Septoria tritici was treated with compounds added in combination. The DMSO solutions of the test compounds were added to the wells prior to addition of the fungal growth medium.
The fungal growth solid medium was prepared by forming an aqueous mixture containing dipotassium hydrogen phosphate (3.0 g/L), potassium dihydrogen phosphate (4.0 g/L), sodium chloride (0.5 g/L), ammonium chloride (1.0 g/L), magnesium sulfate heptahydrate ([…]) and calcium chloride dihydrate (0.01 g/L), also containing 1 mL/L of a trace element solution (manganese sulfate hydrate (0.1 mg/mL), zinc sulfate heptahydrate (0.2 mg/mL), copper(II) sulfate pentahydrate (0.2 mg/mL), iron(II) sulfate heptahydrate (0.2 mg/mL), sodium molybdate dihydrate (0.1 mg/mL), cobalt(II) sulfate heptahydrate (0.06 mg/mL), boric acid (0.08 mg/mL)), and supplemented with 50 μL/L of a biotin stock solution (0.1 mg/mL). The pH was adjusted to 6.8 with aqueous 1 M sodium carbonate solution. The mixture was further supplemented with 1 g/L of yeast extract, and GELRITE gellan gum (Kelco) (4 g/L) was added. Sufficient water was added to bring the volume to 90% of final volume (e.g., 900 mL volume for preparation of 1 L of fungal growth medium). The mixture was autoclaved. On cooling to 60° C., 100 mL/L of aqueous dextrose solution (10 g/L), 500 μL/L of aqueous ampicillin solution (100 mg/mL) and 500 μL/L of rifampicin solution (10 mg/mL in DMSO) were added to provide the final volume of fungal growth medium, which was then dispensed while still warm using a microliter pipette to the wells of the 96-well plates. The dispensed fungal growth medium in each well was agitated using the tip of the dispensing pipette to mix it with the DMSO solution containing the test compounds.
After the fungal growth medium in the wells had cooled to room temperature and solidified, the top surface of the growth medium in each well was inoculated with 20 μL of a suspension of fungus containing 8×10^4 cells. Following a 2 h period of drying in a sterile hood, plates were placed in a dark incubator at 25° C. for 5 d.
Fungal growth was assessed on a plate reader set to measure absorbance of 600 nm light. The percent growth inhibition observed (Obsd.) in Tests N1 and N2, as well as the percent growth inhibition expected (Exp.) from calculation using the Colby equation, are listed in Tables L and M, respectively.

[3] = system: Alternaria solani; experiment: Test B: tomato early blight, preventive spray on tomato seedlings, visual disease rating; conditions: Alternaria solani, in Solanum lycopersicum, read-out: Test B rating (disease control)
[4] = read-out: % inhibition Obsd. (Test N1)
[5] = read-out: % inhibition Obsd. (Test N2)

`Cc1nn(C)c(Nc2c(F)cc(Cl)cc2F)c1-c1ccc(F)cc1Cl` [Compound 81, N-(4-chloro-2,6-difluorophenyl)-4-(2-chloro-4-fluorophenyl)-1,3-dimethyl-1H-pyrazole-5-amine] was tested, and the “Test L1 Obsd” value ([1]; Compound 81 1 ppm alone) was 88%, the “Test L2 Obsd” value ([1]; Compound 81 1 ppm alone) was 9% and the “Test L3 Obsd” value ([1]; Compound 81 1 ppm alone) was 9%. The “Test L1 Obsd” value ([1]; Compound 81 2 ppm alone) was 68%, the “Test L2 Obsd” value ([1]; Compound 81 2 ppm alone) was 27% and the “Test L3 Obsd” value ([1]; Compound 81 2 ppm alone) was 9%. The “Test L1 Obsd” value ([1]; Compound 81 5 ppm alone) was 91%, the “Test L2 Obsd” value ([1]; Compound 81 5 ppm alone) was 74% and the “Test L3 Obsd” value ([1]; Compound 81 5 ppm alone) was 41%. For the same compound, the “Test L1 Obsd” value ([1]; Compound 81 10 ppm alone) was 98%, the “Test L2 Obsd” value ([1]; Compound 81 10 ppm alone) was 91% and the “Test L3 Obsd” value ([1]; Compound 81 10 ppm alone) was 88%. For the same compound, the “Test L4 Obsd, disease control rating” value ([1]; Compound 81 1 ppm alone) was 0%, the “Test L5 Obsd, disease control rating” value ([1]; Compound 81 1 ppm alone) was 18% and the “Test L4 Obsd, disease control rating” value ([1]; Compound 81 2 ppm alone) was 27%. For the same compound, the “Test L5 Obsd, disease control rating” value ([1]; Compound 81 2 ppm alone) was 27%, the “Test L4 Obsd, disease control rating” value ([1]; Compound 81 5 ppm alone) was 68% and the “Test L5 Obsd, disease control rating” value ([1]; Compound 81 5 ppm alone) was 55%. For the same compound, the “Test L4 Obsd, disease control rating” value ([1]; Compound 81 10 ppm alone) was 88%, the “Test L5 Obsd, disease control rating” value ([1]; Compound 81 10 ppm alone) was 82% and the inhibition at 0.00032 µM [2, 4] was 9%. For the same compound, the inhibition at 0.00032 µM [2, 5] was 0%, the inhibition at 0.0016 µM [2, 4] was 5% and the inhibition at 0.0016 µM [2, 5] was 0%. For the same compound, the inhibition at 0.008 µM [2, 4] was 10%, the inhibition at 0.008 µM [2, 5] was 29% and the inhibition at 0.04 µM [2, 4] was 93.5%. The inhibition at 0.04 µM [2, 5] was 93.5%, the inhibition at 0.2 µM [2, 4] was 98% and the inhibition at 0.2 µM [2, 5] was 96%. It also gave a pest or weed control at 200 µg/mL [3] of 99%.
